In brackets after ≈: the same amount, converted by molar mass.
Tests used:
E.Col: E96 (R + strain) = experiment: Synergistic activity in mice infected intraperitoneally; type: in vivo; conditions: mice infected intraperitoneally with E.Col: E96 (R + strain); oral and sub-cutaneous route
From the text: The results obtained were as follows: • Synergistic activity in Mice infected intraperitoneally with E.Col: E96 (R + strain) [formula]

E. coli JT 39 = experiment: MIC by standard microtitre method, alone and in admixture with ampicillin; type: cell-based; conditions: Escherichia coli, JT39; compound alone
Protocol: (§1) The MICs of ampicillin, 9-O-(N-glycyl)-2-amino- ethylclavulanic acid (GAECA) alone and in admixture against a number of bacteria were determined by a standard microtitre method. The results obtained were as follows: The MICs of ampicillin, 9-O-(N-alanyl)-2-amino- ethylclavulanic acid (AAECA) alone and in admixture against a number of bacteria were determined by a standard microtitre method.

Proteus C 889 = experiment: as above; type: cell-based; conditions: compound alone
Protocol: as §1

Staph. aureus Russell = experiment: as above; type: cell-based; conditions: compound alone; for MIC: Staphylococcus aureus
Protocol: as §1

Klebsiella aerog. E.70 = experiment: as above; type: cell-based; conditions: compound alone
Protocol: as §1

Row | MIC (E. coli JT 39) [µg/mL] | MIC (Proteus C 889) [µg/mL] | MIC (Staph. aureus Russell) [µg/mL] | MIC (Klebsiella aerog. E.70) [µg/mL] | MIC (µg/ml) Proteus C 889 (Proteus C 889) [µg/mL] | MIC (µg/ml) Staph. aureus Russell (Staph. aureus Russell) [µg/mL] | Structure (SMILES) | Synergistic activity in vivo (E.Col: E96 (R + strain))
1 | 16 (≈ 51.1 µM) | 250 (≈ 798 µM) | 8 (≈ 25.5 µM) | 125 (≈ 399 µM) | – | – | C[C@H](N)C(=O)NCCOC/C=C1\O[C@@H]2CC(=O)N2[C@H]1C(=O)O [AAECA, 9-0-(N-L-alanyl)-2-aminoethylclavulanic acid] | good activity in vivo by both the oral and sub-cutaneous route
2 | 2000 (≈ 5720 µM) | 2000 (≈ 5720 µM) | 250 (≈ 715 µM) | 500 (≈ 1430 µM) | 1000 (≈ 2860 µM) | 500 (≈ 1430 µM) | CC1(C)S[C@@H]2[C@H](NC(=O)[C@H](N)c3ccccc3)C(=O)N2[C@H]1C(=O)O [Ampicillin, ampicillin, reference compound] | –
3 | 51.2 (≈ 171 µM) | 250 (≈ 835 µM) | 8 (≈ 26.7 µM) | 62.5 (≈ 209 µM) | – | – | NCC(=O)NCCOC/C=C1\O[C@@H]2CC(=O)N2[C@H]1C(=O)O [GAECA, 9-0-(N-Glycyl)-2-aminoethylclavulanic acid] | –

From patent EP0013790A1, “Clavulanic acid derivatives, their preparation and pharmaceutical compositions containing them” (BEECHAM GROUP PLC, priority 1978, dated 1980)
